The text below walks through data of patent US10858367B2, “Compounds” (GLAXOSMITHKLINE INTELLECTUAL PROPERTY DEVELOPMENT LIMITED, priority 2017, dated 2020).

Each structure is given as a SMILES string. Several values for one entry are separate records, joined by “and”; a condition that tells them apart may be missing. Equal entries are not always repeated.

For the test, the target named is T1, LRRK2 Ser935 phosphorylation in SH-SY5Y cells over-expressing recombinant full length LRRK2 (Homo sapiens, UniProt Q5S007).
T1 construct: A BacMam virus expressing full length recombinant LRRK2 was purchased from Invitrogen; host or cells: SH-SY5Y human neuroblastoma cells transduced with BacMam LRRK2 virus
T1 sequence (Q5S007 whole entry): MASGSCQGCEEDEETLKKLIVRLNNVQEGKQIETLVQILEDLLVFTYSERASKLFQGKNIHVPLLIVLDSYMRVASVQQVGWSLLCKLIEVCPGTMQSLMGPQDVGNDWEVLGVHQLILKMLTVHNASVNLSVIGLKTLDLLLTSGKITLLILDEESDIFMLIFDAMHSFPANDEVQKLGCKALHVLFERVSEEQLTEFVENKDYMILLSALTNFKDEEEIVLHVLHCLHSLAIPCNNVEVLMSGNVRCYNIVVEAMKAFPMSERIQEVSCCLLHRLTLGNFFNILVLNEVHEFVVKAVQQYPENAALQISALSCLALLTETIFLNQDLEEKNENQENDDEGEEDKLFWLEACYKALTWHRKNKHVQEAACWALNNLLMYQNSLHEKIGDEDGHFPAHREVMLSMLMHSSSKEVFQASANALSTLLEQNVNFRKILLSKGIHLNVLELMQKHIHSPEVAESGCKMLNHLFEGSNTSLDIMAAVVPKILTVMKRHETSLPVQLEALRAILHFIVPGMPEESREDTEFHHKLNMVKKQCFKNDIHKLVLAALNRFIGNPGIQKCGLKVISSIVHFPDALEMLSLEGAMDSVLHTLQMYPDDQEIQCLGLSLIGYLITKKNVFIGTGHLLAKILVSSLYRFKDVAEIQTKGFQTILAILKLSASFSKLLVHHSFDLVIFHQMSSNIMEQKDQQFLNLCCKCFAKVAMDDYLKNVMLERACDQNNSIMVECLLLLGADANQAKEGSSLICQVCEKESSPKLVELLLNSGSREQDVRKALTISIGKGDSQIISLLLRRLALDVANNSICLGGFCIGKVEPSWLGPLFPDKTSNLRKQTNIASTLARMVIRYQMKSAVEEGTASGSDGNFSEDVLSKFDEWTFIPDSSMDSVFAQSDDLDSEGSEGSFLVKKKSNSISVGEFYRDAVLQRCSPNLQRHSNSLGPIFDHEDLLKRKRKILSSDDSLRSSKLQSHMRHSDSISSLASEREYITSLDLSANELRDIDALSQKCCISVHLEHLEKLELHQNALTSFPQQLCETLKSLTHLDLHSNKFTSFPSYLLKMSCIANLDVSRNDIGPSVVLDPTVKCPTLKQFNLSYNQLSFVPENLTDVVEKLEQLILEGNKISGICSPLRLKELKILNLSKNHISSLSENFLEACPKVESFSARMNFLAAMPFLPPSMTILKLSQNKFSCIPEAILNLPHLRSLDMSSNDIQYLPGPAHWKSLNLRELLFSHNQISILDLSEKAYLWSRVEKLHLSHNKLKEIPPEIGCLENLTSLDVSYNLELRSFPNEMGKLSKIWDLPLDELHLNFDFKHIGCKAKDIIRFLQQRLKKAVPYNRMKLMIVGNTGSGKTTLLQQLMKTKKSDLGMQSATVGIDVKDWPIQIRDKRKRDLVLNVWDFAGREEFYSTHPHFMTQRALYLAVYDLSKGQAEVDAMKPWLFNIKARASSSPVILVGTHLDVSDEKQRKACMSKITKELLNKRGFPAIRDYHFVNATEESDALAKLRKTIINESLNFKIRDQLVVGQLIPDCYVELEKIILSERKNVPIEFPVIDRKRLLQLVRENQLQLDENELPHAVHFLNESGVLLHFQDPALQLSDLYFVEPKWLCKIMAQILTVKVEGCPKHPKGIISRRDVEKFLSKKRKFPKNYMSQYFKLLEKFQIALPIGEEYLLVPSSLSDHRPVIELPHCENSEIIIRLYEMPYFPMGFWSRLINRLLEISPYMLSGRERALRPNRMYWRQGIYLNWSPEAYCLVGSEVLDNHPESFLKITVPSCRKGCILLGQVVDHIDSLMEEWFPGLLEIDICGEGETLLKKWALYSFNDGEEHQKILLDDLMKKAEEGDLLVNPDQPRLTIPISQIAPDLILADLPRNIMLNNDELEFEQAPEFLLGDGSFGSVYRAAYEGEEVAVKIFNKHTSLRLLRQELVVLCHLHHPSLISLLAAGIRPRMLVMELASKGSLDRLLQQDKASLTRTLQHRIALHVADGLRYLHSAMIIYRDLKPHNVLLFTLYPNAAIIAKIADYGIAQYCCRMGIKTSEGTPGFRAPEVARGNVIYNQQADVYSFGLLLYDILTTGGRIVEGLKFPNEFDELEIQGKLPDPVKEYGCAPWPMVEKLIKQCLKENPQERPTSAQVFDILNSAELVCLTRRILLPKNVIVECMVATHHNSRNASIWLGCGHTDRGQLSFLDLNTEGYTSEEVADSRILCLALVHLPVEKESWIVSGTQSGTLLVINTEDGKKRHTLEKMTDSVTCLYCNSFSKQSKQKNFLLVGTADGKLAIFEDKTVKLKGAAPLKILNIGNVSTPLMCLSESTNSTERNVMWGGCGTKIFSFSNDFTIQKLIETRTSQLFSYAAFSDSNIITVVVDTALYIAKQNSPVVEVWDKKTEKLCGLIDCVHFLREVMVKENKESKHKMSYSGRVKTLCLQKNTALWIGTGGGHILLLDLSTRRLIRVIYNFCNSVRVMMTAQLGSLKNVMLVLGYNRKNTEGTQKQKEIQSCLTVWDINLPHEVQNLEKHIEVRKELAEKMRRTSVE
In words: Recombinant cellular LRRK2 AlphaScreen assay. The settings on record: human neuroblastoma SH-SY5Y cells, BacMam full length LRRK2, 60 minutes with compound, read-out: pIC50 in the recombinant cellular LRRK2 AlphaScreen assay (converted). The format is cell-based. The source says: b. Recombinant Cellular LRRK2 AlphaScreen Assay
To determine the activity of compounds against LRRK2 kinase activity in cells, the observed LRRK2 kinase-dependent modulation of LRRK2 Ser 935 phosphorylation (Dzamko et al., 2010, Biochem. J. 430: 405-413) was utilized to develop a quantitative 384 well plate-based immunoassay of LRRK2 Ser935 phosphorylation in the human neuroblastoma cell line SH-SY5Y, engineered to over-express recombinant full length LRRK2 protein.
A BacMam virus expressing full length recombinant LRRK2 was purchased from Invitrogen and amplified by inoculation of SF-9 cells at MOI 0.3 for 4-5 days in Sf-900 III SFM medium supplemented with 3% fetal bovine serum. Infected cell cultures were then centrifuged at 2000 g for 20 minutes, viral supernatant titer determined by anti-gp64 plaque assay and stored at 4° C.
Affinity-purified anti-phospho LRRK2 Ser935 sheep polyclonal antibody (Dzamko et al., 2010, Biochem. J. 430: 405-413) was biotinylated by standard methods (PerkinElmer). Anti-LRRK2 rabbit polyclonal antibody was purchased from Novus Biologicals. AlphaScreen Protein A IgG Kit (including acceptor and donor beads) was purchased from Perkin Elmer.
SH-SY5Y cells were grown in DMEM/F12 medium with 10% dialysed fetal bovine serum and harvested by treatment with 0.5% trypsin-EDTA for 5 minutes at 37° C. followed by centrifugation at 1000 rpm for 4 minutes. The cell pellet was resuspended in Opti-MEM reduced serum media (Invitrogen) at 200,000 cells/ml and mixed with the BacMam LRRK2 virus at MOI=50. 50 μl cell solutions were then dispensed to each well of a 384-well plate and incubated at 37° C., 5% CO2 for 24 hours.
Serial dilutions of test compounds were prepared in Opti-MEM reduced serum media (Invitrogen) and 5.6 ul transferred from compound plate to cell assay plate to achieve a top final assay concentration of 10 uM. DMSO was used in certain wells as controls. Cells were incubated at 37° C., 5% CO2 for 60 minutes. The medium was then removed and cells lysed by addition of 20 ul cell lysis buffer (Cell Signaling Technology) and incubation at 4° C. for 20 minutes. 10 ul of antibody/acceptor bead mix [(1/1000 biotinylated-pS935 LRRK2 antibody, 1/1000 total-LRRK2 antibody, 1/100 Acceptor beads in AlphaScreen detection buffer (25 mM Hepes (pH 7.4), 0.5% Triton X-100, 1 mg/ml Dextran 500 and 0.1% BSA)] was then added to each well and plates incubated for 2 hours at ambient temperature in the dark. 10 μl of donor beads solution (1/33.3 donor beads in AlphaScreen detection buffer) was then added to each well. Following incubation for a further 2 hours at ambient temperature in the dark, plates were read on an EnVision™ plate reader at emission 520-620 nm with excitation 680 nm. Dose response curve data was based on sigmoidal dose-response model.

Consider `COc1nc(N2CC3CCC2CO3)cc(-n2ncc3cc(C)c(C4CCN(C5CCOC5)CC4)cc32)n1` (single isomer, unassigned) [Example E64, 5-(2-methoxy-6-(5-methyl-6-(1-(tetrahydrofuran-3-yl)piperidin-4-yl)-1H-indazol-1-yl)pyrimidin-4-yl)-2-oxa-5-azabicyclo[2.2.2]octane], for which the IC50 is at most 1000 nM. In the case of `COc1nc(N2C[C@@H]3C[C@H]2CO3)cc(-n2ncc3cc(C)c(C4CCN(CCO)CC4)cc32)n1` [Example E28, 2-(4-(1-(6-((1S,4S)-2-oxa-5-azabicyclo[2.2.1]heptan-5-yl)-2-methoxypyrimidin-4-yl)-5-methyl-1H-indazol-6-yl)piperidin-1-yl)ethanol], the IC50 was at most 1000 nM. `Cc1nc(N2CC3CCC(C2)O3)cc(-n2ncc3cc(C)c(C4CCN(C5COC5)CC4)cc32)n1` [Example E42, 3-(2-Methyl-6-(5-methyl-6-(1-(oxetan-3-yl)piperidin-4-yl)-1H-indazol-1-yl)pyrimidin-4-yl)-8-oxa-3-azabicyclo[3.2.1]octane]: the IC50 is at most 1000 nM. With `Cc1nc(N2C[C@H]3C[C@@H]2CO3)cc(-n2ncc3cc(C)c(C4CCN(CCO)CC4)cc32)n1` [Example E51, 2-(4-(1-(6-((1R,4R)-2-oxa-5-azabicyclo[2.2.1]heptan-5-yl)-2-methylpyrimidin-4-yl)-5-methyl-1H-indazol-6-yl)piperidin-1-yl)ethanol], the IC50 was at most 1000 nM. On to `Cc1nc(N2C[C@H]3C[C@@H]2CO3)cc(-n2ncc3cc(C)c(C4C5CN(CCS(C)(=O)=O)CC54)cc32)n1` (stereo partly drawn) [Example E180, (1R,4R)-5-(2-methyl-6-(5-methyl-6-(3-(2-(methylsulfonyl)ethyl)-3-azabicyclo[3.1.0]hexan-6-yl)-1H-indazol-1-yl)pyrimidin-4-yl)-2-oxa-5-azabicyclo[2.2.1]heptane], for which the IC50 is at most 1000 nM.

Consider `COc1nc(N2CC3CC2CO3)cc(-n2ncc3cc(C)c([C@H]4CC[C@@](C)(O)CC4)cc32)n1` (single isomer, unassigned) [Example E11], for which the IC50 is at most 10 nM. On to `COCCN1CCC(c2cc3c(cnn3-c3cc(N4C[C@@H]5C[C@H]4CO5)nc(OC)n3)cc2C)CC1` [Example E36, (1S,4S)-5-(2-methoxy-6-(6-(1-(2-methoxyethyl)piperidin-4-yl)-5-methyl-1H-indazol-1-yl)pyrimidin-4-yl)-2-oxa-5-azabicyclo[2.2.1]heptane], for which the IC50 is at most 1000 nM. With `Cc1nc(N2C[C@H]3C[C@@H]2CO3)cc(-n2ncc3cc(Cl)c(N4CCC(C)(O)C4)cc32)n1` (single isomer, unassigned) [Example E49], the IC50 was at most 1000 nM.

As for `COc1nc(N2CC3CC2CC3C(=O)O)cc(-n2ncc3cc(Cl)c(O[C@@H]4CCOC4)cc32)n1` (single isomer, unassigned) [Example E85], the IC50 was at most 1000 nM. As to `Cc1nc(N2C[C@H]3C[C@@H]2CO3)cc(-n2ncc3cc(C)c(C4CCN(C5CCOC5)CC4F)cc32)n1` (single isomer, unassigned) [Example E149], the IC50 is at most 1000 nM. `Cc1nc(N2C[C@@H]3C[C@H]2CO3)cc(-n2ncc3cc(C)c([C@H]4CC[C@](C)(O)CC4)cc32)n1` [Example E8, Trans-4-(1-(6-((1S,4S)-2-oxa-5-azabicyclo[2.2.1]heptan-5-yl)-2-methylpyrimidin-4-yl)-5-methyl-1H-indazol-6-yl)-1-methylcyclohexanol]: the IC50 was at most 1000 nM. `Cc1nc(N2C[C@@H]3C[C@H]2CO3)cc(-n2ncc3cc(C)c([C@H]4CC[C@@](C)(O)CC4)cc32)n1` [Example E7, Cis-4-(1-(6-((1S,4S)-2-oxa-5-azabicyclo[2.2.1]heptan-5-yl)-2-methylpyrimidin-4-yl)-5-methyl-1H-indazol-6-yl)-1-methylcyclohexanol]: the IC50 is at most 1000 nM.

For the compound `Cc1nc(N2CC3CCC(C2)O3)cc(-n2ncc3cc(C)c(C4CCNCC4)cc32)n1` [Example E63, 3-(2-methyl-6-(5-methyl-6-(piperidin-4-yl)-1H-indazol-1-yl)pyrimidin-4-yl)-8-oxa-3-azabicyclo[3.2.1]octane 2,2,2-trifluoroacetate], the IC50 is at most 1000 nM. Turning to `COCCN1CCC(c2cc3c(cnn3-c3cc(N4C[C@H]5C[C@@H]4CO5)nc(OC)n3)cc2C)CC1` [Example E35, (1R,4R)-5-(2-methoxy-6-(6-(1-(2-methoxyethyl)piperidin-4-yl)-5-methyl-1H-indazol-1-yl)pyrimidin-4-yl)-2-oxa-5-azabicyclo[2.2.1]heptane], the IC50 is at most 1000 nM. Then `Cc1nc(N2CC3CC2CN3C2COC2)cc(-n2ncc3cc(C)c([C@H]4CC[C@@](C)(O)CC4)cc32)n1` (stereo partly drawn) [Example E30, Cis-1-methyl-4-(5-methyl-1-(2-methyl-6-((1S,4S)-5-(oxetan-3-yl)-2,5-diazabicyclo[2.2.1]heptan-2-yl)pyrimidin-4-yl)-1H-indazol-6-yl)cyclohexanol], with at most 1000 nM; and `Cc1nc(N2C[C@H]3C[C@@H]2CO3)cc(-n2ncc3cc(C)c(C4C5CN(C6CCOC6)CC54)cc32)n1` (stereo partly drawn) [Example E179, (1R,4R)-5-(2-methyl-6-(5-methyl-6-(3-((S)-tetrahydrofuran-3-yl)-3-azabicyclo-[3.1.0]hexan-6-yl)-1H-indazol-1-yl)pyrimidin-4-yl)-2-oxa-5-azabicyclo[2.2.1]heptane], with at most 1000 nM.

In the case of `Cc1nc(N2CC3CC(C2)O3)cc(-n2ncc3cc(C)c(C4CCN(C5COC5)CC4)cc32)n1` [Example E44, 3-(2-Methyl-6-(5-methyl-6-(1-(oxetan-3-yl)piperidin-4-yl)-1H-indazol-1-yl)pyrimidin-4-yl)-6-oxa-3-azabicyclo[3.1.1]heptane], the IC50 is at most 1000 nM.

`Cc1nc(N2C[C@H]3C[C@@H]2CO3)cc(-n2ncc3cc(Cl)c(N4CCC(C)(O)CC4)cc32)n1` [Example E34, 1-(1-(6-((1R,4R)-2-oxa-5-azabicyclo[2.2.1]heptan-5-yl)-2-methylpyrimidin-4-yl)-5-chloro-1H-indazol-6-yl)-4-methylpiperidin-4-ol]: the IC50 is at most 1000 nM.

As to `[2H]C1(N2CCC(c3cc4c(cnn4-c4cc(N5C[C@@H]6C[C@H]5CO6)nc(OC)n4)cc3C)CC2)COC1` [Example E57, (1S,4S)-5-(6-(6-(1-(3-deuterooxetan-3-yl)piperidin-4-yl)-5-methyl-1H-indazol-1-yl)-2-methoxypyrimidin-4-yl)-2-oxa-5-azabicyclo[2.2.1]heptane], the IC50 is at most 1000 nM. As to `COc1nc(N2CC3CC(C2)O3)cc(-n2ncc3cc(C)c(C4CCNCC4)cc32)n1` [Example E60, 3-(2-methoxy-6-(5-methyl-6-(piperidin-4-yl)-1H-indazol-1-yl)pyrimidin-4-yl)-6-oxa-3-azabicyclo[3.1.1]heptane 2,2,2-trifluoroacetate], the IC50 is at most 1000 nM.

On to `COc1nc(N2CC3CC2CO3)cc(-n2ncc3cc(C)c(C4CCN(C5CCOC5)CC4O)cc32)n1` (single isomer, unassigned) [Example E135], for which the IC50 was at most 1000 nM. In the case of `COc1nc(N2C[C@H]3C[C@@H]2CO3)cc(-n2ncc3cc(C)c(C4CCN(C5COC5)CC4)cc32)n1` [Example E1, (1R,4R)-5-(2-methoxy-6-(5-methyl-6-(1-(oxetan-3-yl)piperidin-4-yl)-1H-indazol-1-yl)pyrimidin-4-yl)-2-oxa-5-azabicyclo[2.2.1]heptane], the IC50 was ≤ 1000 nM and 20 nM.
